Reference: US10064873B2, “Compounds and compositions for treating HIV with derivatives of Betulin” (GlaxoSmithKline LLC, priority 2011, dated 2018)
Where two headings read alike, the source gives them in different places.

Tests used:
HIV-1 (strain IIIB) = assay: MT4 Cell Antiviral Assay (propidium iodide or MTS readout); type: cell-based; conditions: Human immunodeficiency virus 1, IIIB, read-out: expected range of IC50 values (control and standard)
HIV [1] = conditions: cited from earlier work
HIV NL4-3 wt = assay: MT4 antiviral assay, NL4-3 strain wild type; type: cell-based, HIV-1
HIV-1 strain JR-CSF = assay: Modified PBMC (PBL) assay with human serum titration; type: cell-based; conditions: for IC50: Human immunodeficiency virus 1, PBMC
Experimental: In this assay, 8×10^6 cells from pooled donors were incubated with virus for 1 hour, followed by centrifugation for 1 hour. Cells were then gently re-suspended and incubated an additional 2 hours.

[2] = tested on: NL4-3 strain with V370A site directed mutant polymorphism; assay: MT4 antiviral assay, NL4-3 strain with V370A site directed mutant polymorphism; type: cell-based, HIV-1; conditions: Human immunodeficiency virus 1, NL43, MT4 cells
HIV [3] = assay: Standard PBMC assay (0% human serum); type: cell-based; conditions: Human immunodeficiency virus 1, PBMC, 168 h, PBMCs, 7 days
Experimental: Following incubation in both the standard and modified assays, supernatants were assayed for reverse transcriptase (RT) activity and p24 antigen content by ELISA and spectrophotometric analysis at 450 nM.

[4] = Human immunodeficiency virus 1, NL43, MT4, read-out: EC50 NL4-3 wt (nM)

In the case of Cc1cn([C@H]2C[C@H](N=[N+]=[N-])[C@@H](CO)O2)c(=O)[nH]c1=O [3′-azido-3′-deoxythymidine], the IC50 (HIV-1 (strain IIIB)) is reported as 0.04 to 0.12 µM.
For C=C(C)[C@@H]1CC[C@]2(C(=O)O)CC[C@]3(C)[C@H](CC[C@@H]4[C@@]5(C)CC[C@H](OC(=O)CC(C)(C)C(=O)O)C(C)(C)[C@@H]5CC[C@]43C)[C@@H]12 [Bevirimat], the Cmin target (HIV [1]; clinical, McCallister et al. poster 2008) is listed as > 20000 ng/mL, the “mean reduction of HIV viral load” value (HIV [1]; patients with trough levels >=20 μg/mL and no baseline Gag polymorphisms at Q369, V370 or T371) is listed as 1.3 log10/mL and the EC50 (HIV NL4-3 wt; Human immunodeficiency virus 1, NL43, MT4 cells, Consensus Clade B Sp1 Genotype, read-out: MT4 NL. wt* EC50) is listed as 223 nM. For the same compound, the EC50 (HIV NL4-3 wt; Human immunodeficiency virus 1, NL43, MT4 cells, read-out: EC50, MT4 antiviral assay NL4-3 strain / HIV wild type potency) was 223 nM, the “effect of human serum on IC50 values” (HIV-1 strain JR-CSF; 10-40% human serum vs standard assay) was “large increase in the IC50 values” and the IC50 (HIV-1 strain JR-CSF; 10%, 20%, 30% and 40% human serum, unit mM, read-out: IC50 in the presence of human serum) was 1.38 to 13 µM. The “fold change in the IC50 value in the presence of 100% serum” value (HIV-1 strain JR-CSF; extrapolated, compared to control experiment) was 2,310 fold, the EC50 ([2]; read-out: EC50, MT4 antiviral assay NL4-3 strain with V370A polymorphism) was 6.06 µM and the EC50 ([2]; read-out: MT4 NL. V370A EC50) was 6.06 µM. For the same compound, the IC50 (HIV [3]) was 0.00976 µM.
With CC(C)C1=C2[C@H]3CC[C@@H]4[C@@]5(C)CC[C@H](OC(=O)CC(C)(C)C(=O)O)C(C)(C)[C@@H]5CC[C@@]4(C)[C@]3(C)CC[C@@]2([C@@H](O)CN(CCN(C)C)Cc2ccc(Cl)cc2)CC1=O [Compound 51, 4-(((3aR,5aR,5bR,7aR,9S,11aR,11bR,13aS)-3a-((R)-2-((4-Chlorobenzyl)(2-(dimethylamino)ethyl)amino)-1-hydroxyethyl)-1-isopropyl-5a,5b,8,8,11a-pentamethyl-2-oxo-3,3a,4,5,5a,5b,6,7,7a,8,9,10,11,11a,11b,12,13,13a-octadecahydro-2H-cyclopenta[a]chrysen-9-yl)oxy)-2,2-dimethyl-4-oxobutanoic acid] the IC50 (HIV-1 strain JR-CSF; read-out: estimated IC50 for 100% human serum, linear extrapolation from normalized IC50 values) was 0.00033 µM and the IC50 (HIV-1 strain JR-CSF; 10%, 20%, 30% and 40% human serum, read-out: IC50 in the presence of human serum) was 0.00052 to 0.00307 µM.
CC(C)C1=C2[C@H]3CC[C@@H]4[C@@]5(C)CC[C@H](OC(=O)CC(C)(C)C(=O)O)C(C)(C)[C@@H]5CC[C@@]4(C)[C@]3(C)CC[C@@]2([C@@H](O)CN(CCN(C)C)C(=O)c2ccc(Cl)cc2)CC1=O [Example 81, 4-{[(1R,2R,5R,10S,13R,14R, 17S,19R)-5-[(1R)-2-[1-(4-chlorophenyl)-N-[2-(dimethylamino)ethyl] formamido]-1-hydroxyethyl]-1,2,14,18,18-pentamethyl-7-oxo-8-(propan-2-yl)pentacyclo[11.8.0.0^ {2,10}.0^{5,9}.0^{14,19}]henicos-8-en-17-yl]oxy}-2,2-dimethyl-4-oxobutanoic acid] showed an EC50 (HIV NL4-3 wt; Human immunodeficiency virus 1, NL43, MT4 cells, read-out: EC50 NL4-3 wt) of 3 nM.
For CC(C)C1=C2[C@H]3CC[C@@H]4[C@@]5(C)CC[C@H](OC(=O)CC(C)(C)C(=O)O)C(C)(C)[C@@H]5CC[C@@]4(C)[C@]3(C)CC[C@@]2(CCNCc2ccccc2Cl)CC1=O [Example 82, 4-{[(1R,2R,5R,10S,13R,14R, 17S,19R)-5-(2-{[(2-chlorophenyl)methyl]amino}ethyl)-1,2,14,18,18-pentamethyl-7-oxo-8-(propan-2-yl)pentacyclo[11.8.0.0^ {2,10}.0^{5,9}.0^{14,19}]henicos-8-en-17-yl]oxy}-2,2-dimethyl-4-oxobutanoic acid], the EC50 (HIV NL4-3 wt; [4]) was 8.9 nM.
For CC(C)C1=C2[C@H]3CC[C@@H]4[C@@]5(C)CC[C@H](OC(=O)CC(C)(C)C(=O)O)C(C)(C)[C@@H]5CC[C@@]4(C)[C@]3(C)CC[C@@]2(CCNC(=O)c2ccccc2)CC1=O [Example 83, 2,2-dimethyl-4-oxo-4-{[(1R,2R,5R,10S,13R,14R, 17S,19R)-1,2,14,18,18-pentamethyl-7-oxo-5-[2-(phenylformamido)ethyl]-8-(propan-2-yl)pentacyclo[11.8.0.0^ {2,10}.0^{5,9}.0^{14,19}]henicos-8-en-17-yl]oxy)butanoic acid], the EC50 (HIV NL4-3 wt; [4]) was 7.3 nM.
